The target of one test is T1, P2X7 receptor (Homo sapiens, UniProt Q99572).
T1 construct: host or cells: THP-1 cells differentiated with LPS and IFN-γ
T1 sequence (Q99572 1-595): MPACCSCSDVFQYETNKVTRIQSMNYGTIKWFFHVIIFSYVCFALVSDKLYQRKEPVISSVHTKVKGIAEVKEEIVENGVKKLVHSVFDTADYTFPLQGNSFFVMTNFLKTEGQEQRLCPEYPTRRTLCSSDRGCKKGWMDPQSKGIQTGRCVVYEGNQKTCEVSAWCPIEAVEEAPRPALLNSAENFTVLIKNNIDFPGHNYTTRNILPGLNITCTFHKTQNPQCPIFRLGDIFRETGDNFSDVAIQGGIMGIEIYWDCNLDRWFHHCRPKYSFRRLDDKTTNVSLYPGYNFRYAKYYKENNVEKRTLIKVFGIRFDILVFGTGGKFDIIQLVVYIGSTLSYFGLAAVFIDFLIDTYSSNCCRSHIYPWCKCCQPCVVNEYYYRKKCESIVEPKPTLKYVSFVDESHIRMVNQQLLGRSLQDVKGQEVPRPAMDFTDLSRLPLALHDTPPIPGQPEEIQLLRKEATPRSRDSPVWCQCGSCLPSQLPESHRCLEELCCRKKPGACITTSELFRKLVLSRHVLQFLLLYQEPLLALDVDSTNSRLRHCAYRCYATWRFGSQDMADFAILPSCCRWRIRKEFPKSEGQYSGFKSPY
Kind of test: IL-1β release assay in differentiated THP-1 cells stimulated with BzATP (Example 9). To be noted: 0.1 μM compound (symbols *); differentiated THP-1 cells, BzATP 250 uM; read-out: IL-1β % Inhib. @ 0.3 or 0.1 uM. It counts as cell-based. As for the experimental part:
THP-1 cells (ATCC Cat #285-IF-100) are plated in 96 well plates at a concentration of 200,000 cells per well and allowed to differentiate in RPMI-1640 media (ATCC Cat #30-2001) containing 10% FBS, 100 IU/mL penicillin, 100 ug/mL streptomycin, 100 ng/mL LPS and 100 ng/mL IFN-γ for 16 hours. Following differentiation, the cells are treated for an additional 2 hours in RPMI-1640 media containing 100 IU/mL penicillin, 100 ug/mL streptomycin and fresh LPS at 100 ng/mL. The cells are then pretreated for 30 minutes with the compound of interest at the appropriate concentration in RPMI media containing 100 IU/mL penicillin, 100 ug/mL streptomycin. Following the pretreatment 2′,3′-O-(4-benzoylbenzoyl)-adenosine 5′-triphosphate (Sigma Aldrich Cat #B6396) is added to a final concentration of 250 uM and the cells are incubated for an additional 45 minutes. 30 uL of cell supernatant is then collected and IL-1β levels determined via ELISA (R&D systems Cat. #HSLB50) according to manufacturer's recommendations using the Tecan Safire plate reader. Background adjusted IL-1β levels of drug treated and non-treated cells are used to calculate the percent inhibition.
The compounds set forth in Table 1 were tested for activity in a cellular model as described herein. Specifically, cells were pretreated with differing amounts of the compound under test and released IL-1β determined as in Example 9, above. Measurements were made and IC50 values, presented in Table 2, below, were determined by fitting the data to a four parameter logistic equation using GraphPad Prism software (GraphPad Software, Inc). The equation may be expressed by the following formula:
Y=Bottom+(Top−Bottom)/(1+10̂((Log EC50−X)*HillSlope))
Where X is the logarithm of concentration, Y is the response and Y starts at Bottom and goes to Top with a sigmoid shape.
Regarding `O=C(Nc1cccc2c(=O)n(CC3(O)CCCCC3)ccc12)c1ccc(-c2ccccc2)o1` [Compound 9], the inhibition at 0.1 µM is 0 to 25%.

For `COc1cccc(CCC(=O)Nc2cccc3c(=O)n(CC4(O)CCCCC4)ccc23)c1` [Compound 10], the inhibition at 0.1 µM was 0 to 25%.

`COc1cc(OC)cc(C(=O)Nc2cccc3c(=O)n(CC4(O)CCCCC4)ccc23)c1` [Compound 19]: the inhibition at 0.1 µM lay in the range of 0 to 25%.

For `Cc1cccc(C(=O)Nc2cccc3c(=O)n(CC4(O)CCCCC4)ccc23)c1` [Compound 20], the inhibition at 0.1 µM lay within 0 to 25%.

For the molecule `CCOc1ccc(C(=O)Nc2cccc3c(=O)n(CC4(O)CCCCC4)ccc23)cc1` [Compound 21], the inhibition at 0.1 µM lay within 0 to 25%.

As for `O=C(Nc1cccc2c(=O)n(CC3(O)CCCCC3)ccc12)c1ccc(-c2ccccc2)cc1` [Compound 22], the inhibition at 0.1 µM was 0 to 25%.

On to `CC(C)(C)c1ccc(C(=O)Nc2cccc3c(=O)n(CC4(O)CCCCC4)ccc23)cc1` [Compound 23], for which the inhibition at 0.1 µM is 0 to 25%.

For `CC(C(=O)Nc1cccc2c(=O)n(CC3(O)CCCCC3)ccc12)c1ccccc1` (stereo not shown) [Compound 24], the inhibition at 0.1 µM fell in the range of 26 to 50%.

The same test, now with this note: 0.3 μM compound (symbols +); differentiated THP-1 cells, BzATP 250 uM; read-out: IL-1β % Inhib. @ 0.3 or 0.1 uM.
With `O=C(Nc1cccc2c(=O)n(CCO)ccc12)c1ccccc1` [Compound 1], the inhibition at 0.3 µM was 0 to 25%.

Take `COc1ccc(CC(=O)Nc2cccc3c(=O)n(CCO)ccc23)cc1` [Compound 2]: the inhibition at 0.3 µM was 0 to 25%.

Turning to `O=C(CCc1ccccc1)Nc1cccc2c(=O)n(CCO)ccc12` [Compound 3], the inhibition at 0.3 µM lay in the range of 51 to 75%.

With `COc1ccc(C(=O)Nc2cccc3c(=O)n(C(CO)CO)ccc23)c(OC)c1` [Compound 5], the inhibition at 0.3 µM was 0 to 25%.

On to `O=C(Nc1cccc2c(=O)n(CCO)ccc12)c1ccc(C(F)(F)F)cc1C(F)(F)F` [Compound 6], for which the inhibition at 0.3 µM lay within 26 to 50%.

As to `Cc1cc(C(=O)Nc2cccc3c(=O)n(CC4(O)CCCCC4)ccc23)ccc1Cl` [Compound 17], the inhibition at 0.3 µM lay within 0 to 25%.

With `COc1ccc(CCC(=O)Nc2cccc3c(=O)n(CC4(O)CCCCC4)ccc23)cc1` [Compound 25], the inhibition at 0.3 µM is 0 to 25%.

In the case of `O=C(Cc1cccc2ccccc12)Nc1cccc2c(=O)n(CC3(O)CCCCC3)ccc12` [Compound 26], the inhibition at 0.3 µM was in the range of 0 to 25%.

In the case of `O=C(Nc1cccc2c(=O)n(CC3(O)CCCCC3)ccc12)c1ccc2ccccc2c1` [Compound 27], the inhibition at 0.3 µM lay in the range of 0 to 25%.

As to `O=C(Cc1ccccc1F)Nc1cccc2c(=O)n(CC3(O)CCCCC3)ccc12` [Compound 28], the inhibition at 0.3 µM was in the range of 0 to 25%.

In the case of `COc1ccccc1CC(=O)Nc1cccc2c(=O)n(CC3(O)CCCCC3)ccc12` [Compound 29], the inhibition at 0.3 µM lay in the range of 26 to 50%.

`COc1ccc(OC)c(CC(=O)Nc2cccc3c(=O)n(CC4(O)CCCCC4)ccc23)c1` [Compound 30]: the inhibition at 0.3 µM is 0 to 25%.

As for `COc1ccc(CC(=O)Nc2cccc3c(=O)n(CC4(O)CCCCC4)ccc23)cc1OC` [Compound 31], the inhibition at 0.3 µM fell in the range of 0 to 25%.

For `Cc1cccc(CC(=O)Nc2cccc3c(=O)n(CC4(O)CCCCC4)ccc23)c1` [Compound 32], the inhibition at 0.3 µM lay in the range of 0 to 25%.

As to `COc1ccc(CC(=O)Nc2cccc3c(=O)n(CC4(O)CCCCC4)ccc23)cc1` [Compound 33], the inhibition at 0.3 µM was in the range of 0 to 25%.

Take `CCOc1ccc(CC(=O)Nc2cccc3c(=O)n(CC4(O)CCCCC4)ccc23)cc1` [Compound 34]: the inhibition at 0.3 µM was 0 to 25%.

As to `Cc1ccc(CC(=O)Nc2cccc3c(=O)n(CC4(O)CCCCC4)ccc23)cc1` [Compound 35], the inhibition at 0.3 µM fell in the range of 26 to 50%.

`O=C(CCCc1ccccc1)Nc1cccc2c(=O)n(CC3(O)CCCCC3)ccc12` [Compound 36]: the inhibition at 0.3 µM lay within 26 to 50%.

Consider `O=C(Nc1cccc2c(=O)n(CC3(O)CCCCC3)ccc12)c1cc2ccccc2o1` [Compound 37], for which the inhibition at 0.3 µM is 0 to 25%.

Regarding `O=C(Cc1ccc2c(c1)OCO2)Nc1cccc2c(=O)n(CC3(O)CCCCC3)ccc12` [Compound 38], the inhibition at 0.3 µM fell in the range of 0 to 25%.

`COc1cc(CC(=O)Nc2cccc3c(=O)n(CC4(O)CCCCC4)ccc23)cc(OC)c1` [Compound 39]: the inhibition at 0.3 µM was 0 to 25%.

For the molecule `COc1c(C)cc(C(=O)Nc2cccc3c(=O)n(CC4(O)CCCCC4)ccc23)cc1C` [Compound 40], the inhibition at 0.3 µM lay within 0 to 25%.

Take `COc1ccc(CC(=O)Nc2cccc3c(=O)n(CC4(O)CCCCC4)ccc23)c(OC)c1` [Compound 47]: the inhibition at 0.3 µM lay within 0 to 25%.

With `Cc1cc(C(=O)Nc2cccc3c(=O)n(CC4(O)CCCCC4)ccc23)ccc1F` [Compound 48], the inhibition at 0.3 µM was in the range of 0 to 25%.

For the molecule `O=C(CCc1ccc(Cl)cc1)Nc1cccc2c(=O)n(CC3(O)CCCCC3)ccc12` [Compound 49], the inhibition at 0.3 µM fell in the range of 0 to 25%.

For `CCOc1ccccc1CC(=O)Nc1cccc2c(=O)n(CC3(O)CCCCC3)ccc12` [Compound 50], the inhibition at 0.3 µM was 0 to 25%.

Turning to `Cc1ccc(Cl)c(C(=O)Nc2cccc3c(=O)n(CC4(O)CCCCC4)ccc23)c1` [Compound 51], the inhibition at 0.3 µM is 0 to 25%.

On to `Cc1ccc(Cl)cc1C(=O)Nc1cccc2c(=O)n(CC3(O)CCCCC3)ccc12` [Compound 52], for which the inhibition at 0.3 µM lay within 0 to 25%.

Take `Cc1cccc(CCC(=O)Nc2cccc3c(=O)n(CC4(O)CCCCC4)ccc23)c1` [Compound 53]: the inhibition at 0.3 µM lay in the range of 0 to 25%.

Take `O=C(Nc1cccc2c(=O)n(CC3(O)CCCCC3)ccc12)c1cc2cc(Cl)ccc2o1` [Compound 54]: the inhibition at 0.3 µM is 26 to 50%.

On to `Cc1cccc(C(=O)Nc2cccc3c(=O)n(CC4(O)CCCCC4)ccc23)c1Cl` [Compound 55], for which the inhibition at 0.3 µM lay within 0 to 25%.

With `COc1ccc(C(=O)Nc2cccc3c(=O)n(CC4(O)CCCCC4)ccc23)c(C)c1` [Compound 56], the inhibition at 0.3 µM lay within 0 to 25%.

For the molecule `O=C(CCc1cccc(Cl)c1)Nc1cccc2c(=O)n(CC3(O)CCCCC3)ccc12` [Compound 58], the inhibition at 0.3 µM was in the range of 26 to 50%.

On to `CC(C)Cc1ccc(C(=O)Nc2cccc3c(=O)n(CC4(O)CCCCC4)ccc23)cc1` [Compound 59], for which the inhibition at 0.3 µM was 26 to 50%.

Take `O=C(Cc1ccc(C(F)(F)F)cc1)Nc1cccc2c1CCN(CCO)C2=O` [Compound 60]: the inhibition at 0.3 µM is 26 to 50%.

Regarding `O=C(CCc1cc(C(F)(F)F)cc(C(F)(F)F)c1)Nc1cccc2c(=O)n(CCO)ccc12` [Compound 61], the inhibition at 0.3 µM lay within 0 to 25%.

With `O=C(Cc1ccc2c(c1)OCCO2)Nc1cccc2c(=O)n(CCO)ccc12` [Compound 63], the inhibition at 0.3 µM is 0 to 25%.

`O=C(Cc1cc(C(F)(F)F)cc(C(F)(F)F)c1)Nc1cccc2c(=O)n(CCO)ccc12` [Compound 64]: the inhibition at 0.3 µM was 51 to 75%.

For the molecule `COc1ccc(CC(=O)Nc2cccc3c(=O)n(CCO)ccc23)cc1Br` [Compound 66], the inhibition at 0.3 µM was over 76%.

As for `O=C(Cc1cc(C(F)(F)F)ccc1Cl)Nc1cccc2c(=O)n(CCO)ccc12` [Compound 67], the inhibition at 0.3 µM was in the range of 0 to 25%.

With `O=C(Cc1cc(Cl)ccc1C(F)(F)F)Nc1cccc2c(=O)n(CCO)ccc12` [Compound 68], the inhibition at 0.3 µM lay within 26 to 50%.

Regarding `O=C(Cc1cc(C(F)(F)F)ccc1C(F)(F)F)Nc1cccc2c(=O)n(CCO)ccc12` [Compound 70], the inhibition at 0.3 µM is 26 to 50%.

Turning to `CS(=O)(=O)c1ccc(CCC(=O)Nc2cccc3c(=O)n(CCO)ccc23)cc1` [Compound 71], the inhibition at 0.3 µM lay in the range of 0 to 25%.

Consider `CS(=O)(=O)c1ccc(CC(=O)Nc2cccc3c(=O)n(CCO)ccc23)cc1` [Compound 72], for which the inhibition at 0.3 µM lay in the range of 0 to 25%.

As for `O=C(Cc1ccc(F)cc1)Nc1cccc2c(=O)n(CCO)ccc12` [Compound 73], the inhibition at 0.3 µM was in the range of 26 to 50%.

With `CCC(C(=O)Nc1cccc2c(=O)n(CCO)ccc12)c1ccccc1` (stereo not shown) [Compound 74], the inhibition at 0.3 µM lay in the range of 0 to 25%.

On to `COc1cccc(CC(=O)Nc2cccc3c(=O)n(CCO)ccc23)c1` [Compound 75], for which the inhibition at 0.3 µM fell in the range of 0 to 25%.

These data come from patent publication US20110092476A1, “Bicycloheteroaryl compounds as P2X7 modulators and uses thereof” (Renovis, Inc., priority 2006, published 2011).
